Experimental findings from patent US10064873B2, “Compounds and compositions for treating HIV with derivatives of Betulin” (GlaxoSmithKline LLC, priority 2011, dated 2018) are described below.

The subject of the assay is HIV NL4-3 wt. Nature of the assay: MT4 antiviral assay, NL4-3 strain wild type. In kind it is cell-based, HIV-1. The following applies: Human immunodeficiency virus 1, NL43; MT4 cells; read-out: EC50 NL4-3 wt.
In the case of `CC(C)C1=C2[C@H]3CC[C@@H]4[C@@]5(C)CC[C@H](OC(=O)CC(C)(C)C(=O)O)C(C)(C)[C@@H]5CC[C@@]4(C)[C@]3(C)CC[C@@]2([C@H](O)CN2CCc3ccccc3C2)CC1=O` [Example 64, 4-(((3aR,5aR,5bR,7aR,9S,11aR,11bR,13aS)-3a-((S)-2-(3,4-dihydroisoquinolin-2(1H)-yl)-1-hydroxyethyl)-1-isopropyl-5a,5b,8,8,11a-pentamethyl-2-oxo-3,3a,4,5,5a,5b,6,7,7a,8,9,10,11,11a,11b,12,13,13a-octadecahydro-2H-cyclopenta[a]chrysen-9-yl)oxy)-2,2-dimethyl-4-oxobutanoic acid], the EC50 (usually the concentration that produces a half-maximal response) was determined as 7.2 nM.
The value for `CC(C)C1=C2[C@H]3CC[C@@H]4[C@@]5(C)CC[C@H](OC(=O)CC(C)(C)C(=O)O)C(C)(C)[C@@H]5CC[C@@]4(C)[C@]3(C)CC[C@@]2(CCNCc2ccc(Cl)cc2)CC1` [Example 66, 4-(((3aR,5aR,5bR,7aR,9S,11aR,11bR,13aS)-3a-(2-((4-chlorobenzyl)amino)ethyl)-1-isopropyl-5a,5b,8,8,11a-pentamethyl-3,3a,4,5,5a,5b,6,7,7a,8,9,10,11,11a,11b,12,13,13a-octadecahydro-2H-cyclopenta[a]chrysen-9-yl)oxy)-2,2-dimethyl-4-oxobutanoic acid] was 9.2 nM.
In the case of `CC(C)C1=C2[C@H]3CC[C@@H]4[C@@]5(C)CC[C@H](OC(=O)CC(C)(C)C(=O)O)C(C)(C)[C@@H]5CC[C@@]4(C)[C@]3(C)CC[C@@]2([C@H](O)CNCC2CCCCC2)CC1` [Example 67, 4-(((3aS,5aR,5bR,7aR,9S,11aR,11bR,13aS)-3a-((S)-2-((cyclohexylmethyl)amino)-1-hydroxyethyl)-1-isopropyl-5a,5b,8,8,11a-pentamethyl-3,3a,4,5,5a,5b,6,7,7a,8,9,10,11,11a,11b,12,13,13a-octadecahydro-2H-cyclopenta[a]chrysen-9-yl)oxy)-2,2-dimethyl-4-oxobutanoic acid], the EC50 was 136 nM.
The value for `CC(C)C1=C2[C@H]3CC[C@@H]4[C@@]5(C)CC[C@H](OC(=O)CC(C)(C)C(=O)O)C(C)(C)[C@@H]5CC[C@@]4(C)[C@]3(C)CC[C@@]2([C@H](O)CNC2CCCCC2)CC1=O` [Example 68, 4-(((3aR,5aR,5bR,7aR,9S,11aR,11bR,13aS)-3a-((S)-2-(cyclohexylamino)-1-hydroxyethyl)-1-isopropyl-5a,5b,8,8,11a-pentamethyl-2-oxo-3,3a,4,5,5a,5b,6,7,7a,8,9,10,11,11a,11b,12,13,13a-octadecahydro-2H-cyclopenta[a]chrysen-9-yl)oxy)-2,2-dimethyl-4-oxobutanoic acid] was 10.5 nM; that for `CC(=O)O[C@H](CN(CCN(C)C)Cc1ccc(F)cc1)[C@@]12CC[C@]3(C)[C@H](CC[C@@H]4[C@@]5(C)CC[C@H](OC(=O)CC(C)(C)C(=O)O)C(C)(C)[C@@H]5CC[C@]43C)C1=C(C(C)C)C(=O)C2` [Example 70, 4-(((3aR,5aR,5bR,7aR,9S,11aR,11bR,13aS)-3a-((S)-1-acetoxy-2-((2-(dimethylamino)ethyl)(4-fluorobenzyl)amino)ethyl)-1-isopropyl-5a,5b,8,8,11a-pentamethyl-2-oxo-3,3a,4,5,5a,5b,6,7,7a,8,9,10,11,11a,11b,12,13,13a-octadecahydro-2H-cyclopenta[a]chrysen-9-yl)oxy)-2,2-dimethyl-4-oxobutanoic acid] was 1.6 nM; that for `CC(=O)O[C@@H](CN(CCN(C)C)Cc1ccc(F)cc1)[C@@]12CC[C@]3(C)[C@H](CC[C@@H]4[C@@]5(C)CC[C@H](OC(=O)CC(C)(C)C(=O)O)C(C)(C)[C@@H]5CC[C@]43C)C1=C(C(C)C)C(=O)C2` [Example 71, 4-(((3aR,5aR,5bR,7aR,9S,11aR,11bR,13aS)-3a-((R)-1-acetoxy-2-((2-(dimethylamino)ethyl)(4-fluorobenzyl)amino)ethyl)-1-isopropyl-5a,5b,8,8,11a-pentamethyl-2-oxo-3,3a,4,5,5a,5b,6,7,7a,8,9,10,11,11a,11b,12,13,13a-octadecahydro-2H-cyclopenta[a]chrysen-9-yl)oxy)-2,2-dimethyl-4-oxobutanoic acid] was 31.2 nM.
For `CC(C)C1=C2[C@H]3CC[C@@H]4[C@@]5(C)CC[C@H](OC(=O)CC(C)(C)CC(=O)O)C(C)(C)[C@@H]5CC[C@@]4(C)[C@]3(C)CC[C@@]2([C@@H](O)CNCc2ccc(Cl)cc2)CC1=O` [Example 72, 5-(((3aR,5aR,5bR,7aR,9S,11aR,11bR,13aS)-3a-((R)-2-((4-chlorobenzyl)amino)-1-hydroxyethyl)-1-isopropyl-5a,5b,8,8,11a-pentamethyl-2-oxo-3,3a,4,5,5a,5b,6,7,7a,8,9,10,11,11a,11b,12,13,13a-octadecahydro-2H-cyclopenta[a]chrysen-9-yl)oxy)-3,3-dimethyl-5-oxopentanoic acid], the EC50 is 5.1 nM.
The same measure for `CC(C)C1=C2[C@H]3CC[C@@H]4[C@@]5(C)CC[C@H](OC(=O)CC(C)(C)CC(=O)O)C(C)(C)[C@@H]5CC[C@@]4(C)[C@]3(C)CC[C@@]2([C@H](O)CNCc2ccc(Cl)cc2)CC1=O` [Example 73, 5-(((3aR,5aR,5bR,7aR,9S,11aR,11bR,13aS)-3a-((S)-2-((4-chlorobenzyl)amino)-1-hydroxyethyl)-1-isopropyl-5a,5b,8,8,11a-pentamethyl-2-oxo-3,3a,4,5,5a,5b,6,7,7a,8,9,10,11,11a,11b,12,13,13a-octadecahydro-2H-cyclopenta[a]chrysen-9-yl)oxy)-3,3-dimethyl-5-oxopentanoic acid]: 31.8 nM; for `CC(C)C1=C2[C@H]3CC[C@@H]4[C@@]5(C)CC[C@H](OC(=O)CC(C)(C)C(=O)O)C(C)(C)[C@@H]5CC[C@@]4(C)[C@]3(C)CC[C@@]2([C@H](O)CN(CCN(C)C)Cc2ccc(Cl)cc2Cl)CC1=O` [Example 74, 4-(((3aR,5aR,5bR,7aR,9S,11aR,11bR,13aS)-3a-((S)-2-((2,4-dichlorobenzyl)(2-(dimethylamino)ethyl)amino)-1-hydroxyethyl)-1-isopropyl-5a,5b,8,8,11a-pentamethyl-2-oxo-3,3a,4,5,5a,5b,6,7,7a,8,9,10,11,11a,11b,12,13,13a-octadecahydro-2H-cyclopenta[a]chrysen-9-yl)oxy)-2,2-dimethyl-4-oxobutanoic acid]: 2.9 nM; for `CC(C)C1=C2[C@H]3CC[C@@H]4[C@@]5(C)CC[C@H](OC(=O)CC(C)(C)C(=O)O)C(C)(C)[C@@H]5CC[C@@]4(C)[C@]3(C)CC[C@@]2([C@@H](O)CN(CCN(C)C)Cc2ccc(F)cc2)CC1=O` [Example 76, 4-(((3aR,5aR,5bR,7aR,9S,11aR,11bR,13aS)-3a-((R)-2-((2-(dimethylamino)ethyl)(4-fluorobenzyl)amino)-1-hydroxyethyl)-1-isopropyl-5a,5b,8,8,11a-pentamethyl-2-oxo-3,3a,4,5,5a,5b,6,7,7a,8,9,10,11,11a,11b,12,13,13a-octadecahydro-2H-cyclopenta[a]chrysen-9-yl)oxy)-2,2-dimethyl-4-oxobutanoic acid]: 0.7 nM.
Consider `CC(C)C1=C2[C@H]3CC[C@@H]4[C@@]5(C)CC[C@H](OC(=O)CC(C)(C)C(=O)O)C(C)(C)[C@@H]5CC[C@@]4(C)[C@]3(C)CC[C@@]2([C@@H](O)CNCc2ccc(F)cc2)CC1=O` [Example 77, 4-(((3aR,5aR,5bR,7aR,9S,11aR,11bR,13aS)-3a-((R)-2-((4-fluorobenzyl)amino)-1-hydroxyethyl)-1-isopropyl-5a,5b,8,8,11a-pentamethyl-2-oxo-3,3a,4,5,5a,5b,6,7,7a,8,9,10,11,11a,11b,12,13,13a-octadecahydro-2H-cyclopenta[a]chrysen-9-yl)oxy)-2,2-dimethyl-4-oxobutanoic acid], for which the EC50 is 4.7 nM.
Take `CC(C)C1=C2[C@H]3CC[C@@H]4[C@@]5(C)CC[C@H](OC(=O)CC(C)(C)C(=O)O)C(C)(C)[C@@H]5CC[C@@]4(C)[C@]3(C)CC[C@@]2([C@H](O)CN(CCN(C)C)Cc2ccc(F)cc2)CC1=O` [Example 78, 4-(((3aR,5aR,5bR,7aR,9S,11aR,11bR,13aS)-3a-((S)-2-((2-(dimethylamino)ethyl)(4-fluorobenzyl)amino)-1-hydroxyethyl)-1-isopropyl-5a,5b,8,8,11a-pentamethyl-2-oxo-3,3a,4,5,5a,5b,6,7,7a,8,9,10,11,11a,11b,12,13,13a-octadecahydro-2H-cyclopenta[a]chrysen-9-yl)oxy)-2,2-dimethyl-4-oxobutanoic acid]: the EC50 was 2.1 nM.
Regarding `CC(C)C1=C2[C@H]3CC[C@@H]4[C@@]5(C)CC[C@H](OC(=O)CC(C)(C)C(=O)O)C(C)(C)[C@@H]5CC[C@@]4(C)[C@]3(C)CC[C@@]2([C@H](O)CNCc2ccc(F)cc2)CC1=O` [Example 79, 4-(((3aR,5aR,5bR,7aR,9S,11aR,11bR,13aS)-3a-((S)-2-((4-fluorobenzyl)amino)-1-hydroxyethyl)-1-isopropyl-5a,5b,8,8,11a-pentamethyl-2-oxo-3,3a,4,5,5a,5b,6,7,7a,8,9,10,11,11a,11b,12,13,13a-octadecahydro-2H-cyclopenta[a]chrysen-9-yl)oxy)-2,2-dimethyl-4-oxobutanoic acid], the EC50 amounted to 14.7 nM.
The same measure for `CC(C)C1=C2[C@H]3CC[C@@H]4[C@@]5(C)CC[C@H](OC(=O)CC(C)(C)C(=O)O)C(C)(C)[C@@H]5CC[C@@]4(C)[C@]3(C)CC[C@@]2([C@@H](O)CN(CCN(C)C)Cc2ccc(Cl)cc2Cl)CC1=O` [Example 80, 4-{[(1R,2R,5R,10S,13R,14R, 17S,19R)-5-[(1R)-2-{[(2,4-dichlorophenyl)methyl][2-(dimethylamino)ethyl]amino}-1-hydroxyethyl]-1,2,14,18,18-pentamethyl-7-oxo-8-(propan-2-yl)pentacyclo[11.8.0.0^ {2,10}.0^{5,9}.0^{14,19}]henicos-8-en-17-yl]oxy}-2,2-dimethyl-4-oxobutanoic acid]: 2.4 nM; for `CC(C)C1=C2[C@H]3CC[C@@H]4[C@@]5(C)CC[C@H](OC(=O)CC(C)(C)C(=O)O)C(C)(C)[C@@H]5CC[C@@]4(C)[C@]3(C)CC[C@@]2([C@@H](O)CN(CCN(C)C)C(=O)c2ccc(Cl)cc2)CC1=O` [Example 81, 4-{[(1R,2R,5R,10S,13R,14R, 17S,19R)-5-[(1R)-2-[1-(4-chlorophenyl)-N-[2-(dimethylamino)ethyl] formamido]-1-hydroxyethyl]-1,2,14,18,18-pentamethyl-7-oxo-8-(propan-2-yl)pentacyclo[11.8.0.0^ {2,10}.0^{5,9}.0^{14,19}]henicos-8-en-17-yl]oxy}-2,2-dimethyl-4-oxobutanoic acid]: 3 nM.
